# Measured values from patent US20040147574A1, “Isothiazole derivatives” (Pfizer Inc, priority 2003, published 2004).
# Molecular target: T1, TβRII kinase (Homo sapiens, UniProt P37173)
# T1 construct: cytoplasmic domain of TβRII-amino acids 193-567 with A to V change at 438
# T1 sequence (P37173 193-567): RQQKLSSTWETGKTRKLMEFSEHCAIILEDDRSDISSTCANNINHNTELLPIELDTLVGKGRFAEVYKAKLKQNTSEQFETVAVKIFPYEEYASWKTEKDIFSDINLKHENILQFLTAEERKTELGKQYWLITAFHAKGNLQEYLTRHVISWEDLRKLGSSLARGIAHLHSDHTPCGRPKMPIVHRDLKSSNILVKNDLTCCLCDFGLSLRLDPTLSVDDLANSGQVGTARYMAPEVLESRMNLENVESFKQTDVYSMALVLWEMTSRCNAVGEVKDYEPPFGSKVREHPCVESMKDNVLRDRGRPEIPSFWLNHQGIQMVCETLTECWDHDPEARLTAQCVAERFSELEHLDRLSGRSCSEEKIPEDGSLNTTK
# Test: TGF-β Type II Receptor (TβRII) kinase assay: phosphorylation of myelin basic protein
# Format: biochemical
# Details: GST-TβRII 27 nanomolar, MBP 3 micromolar, ATP 0.25 micromolar, 90 minutes at room temperature
# Description: Phosphorylation of myelin basic protein (MBP) by the TβRII kinase was measured as follows: 80 microliters of MBP (Upstate Biotechnology #13-104) diluted in kinase reaction buffer (KRB) containing 50 mM MOPS, 5 mM MgCl2, pH 7.2 to yield a final concentration of 3 micromolar MBP was added to each well of a Millipore 96-well multiscreen-DP 0.65 micron filtration plate (#MADPNOB50). 20 microliters of inhibitor diluted in KRB was added to appropriate wells to yield the desired final concentration (10-0.03 micromolar). 10 microliters of a mixture of ATP (Sigma #A-5394) and ^33P-ATP (Perkin Elmer #NEG/602H) diluted in KRB was added to yield a final concentration of 0.25 micromolar ATP and 0.02 microcuries of ^33P-ATP per well. 10 microliters of a GST-TβRII fusion protein (glutathione S-transferase at the N-terminal end of the cytoplasmic domain of TβRII-amino acids 193-567 with A to V change at 438) diluted in KRB was added to each well to yield a final concentration of 27 nanomolar GST-TβRII. Plates were mixed and incubated for 90 minutes at room temperature. After the reaction incubation, 100 microliters of cold 20% trichloroacetic acid (Aldrich #25,139-9) was added per well and plates were mixed and incubated for 60 minutes at 4° C. Liquid was then removed from the wells using a Millipore vacuum manifold. Plates were washed once with 200 microliters per well of cold 10% trichloroacetic acid followed by two washes with 100 microliters per well of cold 10% trichloroacetic acid. Plates were allowed to dry overnight at room temperature. 20 microliters of Wallac OptiPhase SuperMix scintillation cocktail was added to each well. Plates were sealed and counted using a Wallac 1450 Microbeta liquid scintillation counter. The potency of inhibitors was determined by their ability to reduce TβRII-mediated phosphorylation of the MBP substrate.
row,IC50,Compound
1,551 nM,"CCOc1ccc(CCNC(=O)Nc2snc(OCc3cccnc3)c2C(N)=O)cc1OC [Example 14, 5-{3-[2-(4-Ethoxy-3-methoxy-phenyl)-ethyl]-ureido}-3-(pyridin-3-ylmethoxy)-isothiazole-4-carboxylic acid amide]"
2,940 nM,"NC(=O)c1c(OCc2cccnc2)nsc1NC(=O)NCCc1ccccc1 [Example 7, 5-(3-Phenethyl-ureido)-3-(pyridin-3-ylmethoxy)-isothiazole-4-carboxylic acid amide]"
3,2120 nM,"COc1cccc(CCNC(=O)Nc2snc(OCc3cccnc3)c2C(N)=O)c1 [Example 10, 5-{3-[2-(3-Methoxy-phenyl)-ethyl]-ureido}-3-(pyridin-3-ylmethoxy)-isothiazole-4-carboxylic acid amide]"
4,1610 nM,"NC(=O)c1c(OCc2cccnc2)nsc1NC(=O)NCCC1=CCCCC1 [Example 3, 5-[3-(2-Cyclohex-1-enyl-ethyl)-ureido]-3-(pyridin-3-ylmethoxy)-isothiazole-4-carboxylic acid amide]"
5,1480 nM,"NC(=O)c1c(OCc2cccnc2)nsc1NC(=O)NCCc1cccc(F)c1 [Example 13, 5-{3-[2-(3-Fluoro-phenyl)-ethyl]-ureido}-3-(pyridin-3-ylmethoxy)-isothiazole-4-carboxylic acid amide]"
6,754 nM,"COc1ccc(CCNC(=O)Nc2snc(OCc3cccnc3)c2C(N)=O)cc1OC [Example 6, 5-{3-[2-(3,4-Dimethoxy-phenyl)-ethyl]-ureido}-3-(pyridin-3-ylmethoxy)-isothiazole-4-carboxylic acid amide]"
7,2260 nM,"NC(=O)c1c(OCc2cccnc2)nsc1NC(=O)NCCc1cccc(Cl)c1 [Example 9, 5-{3-[2-(3-Chloro-phenyl)-ethyl]-ureido}-3-(pyridin-3-ylmethoxy)-isothiazole-4-carboxylic acid amide]"
8,3120 nM,"NC(=O)c1c(OCc2cccnc2)nsc1NC(=O)NCCc1ccccc1F [Example 12, 5-{3-[2-(2-Fluoro-phenyl)-ethyl]-ureido}-3-(pyridin-3-ylmethoxy)-isothiazole-4-carboxylic acid amide]"
9,801 nM,"CN(C)CCCNC(=O)Nc1snc(OCc2cccnc2)c1C(N)=O [Example 18, 5-[3-(3-Dimethylamino-propyl)-ureido]-3-(pyridin-3-ylmethoxy)-isothiazole-4-carboxylic acid amide]"
10,1970 nM,"CCOc1cc(CCNC(=O)Nc2snc(OCc3cccnc3)c2C(N)=O)ccc1OC [Example 8, 5-{3-[2-(3-Ethoxy-4-methoxy-phenyl)-ethyl]-ureido}-3-(pyridin-3-ylmethoxy)-isothiazole-4-carboxylic acid amide]"
11,349 nM,"NC(=O)c1c(OCc2cccnc2)nsc1NC(=O)NCCO [Example 23, 5-[3-(2-Hydroxy-ethyl)-ureido]-3-(pyridin-3-ylmethoxy)-isothiazole-4-carboxylic acid amide]"
12,1600 nM,"Cc1ccc(C)c(CNC(=O)Nc2snc(OCc3cccnc3)c2C(N)=O)c1 [Example 4, 5-[3-(2,5-Dimethyl-benzyl)-ureido]-3-(pyridin-3-ylmethoxy)-isothiazole-4-carboxylic acid amide]"
13,2990 nM,"NC(=O)c1c(OCc2cccnc2)nsc1NC(=O)NCCc1ccccc1Cl [Example 11, 5-{3-[2-(2-Chloro-phenyl)-ethyl]-ureido}-3-(pyridin-3-ylmethoxy)-isothiazole-4-carboxylic acid amide]"

# More lines, now with the values behind:
row,Compound,IC50
1,"CCC(O)CNC(=O)Nc1snc(OCc2cccnc2)c1C(N)=O (stereo not drawn) [Example 24, 5-[3-(2-Hydroxy-butyl)-ureido]-3-(pyridin-3-ylmethoxy)-isothiazole-4-carboxylic acid amide]",669 nM
2,"CC(Oc1nsc(NC(=O)NCc2ccccn2)c1C(N)=O)c1cccnc1 (stereo not drawn) [Example 25, 3-(1-Pyridin-3-yl-ethoxy)-5-(3-pyridin-2-ylmethyl-ureido)-isothiazole-4-carboxylic acid amide]",7390 nM
3,"NC(=O)c1c(OCc2cccnc2)nsc1NC(=O)NC[C@H]1CCCCCC[C@H]1O [Example 22, (R),(R)-5-[3-(2-Hydroxy-cyclooctylmethyl)-ureido]-3-(pyridin-3-ylmethoxy)-isothiazole-4-carboxylic acid amide]",753 nM
4,"CCN(CC)CCNC(=O)Nc1snc(OCc2cccnc2)c1C(N)=O [Example 17, 5-[3-(2-Diethylamino-ethyl)-ureido]-3-(pyridin-3-ylmethoxy)-isothiazole-4-carboxylic acid amide]",1940 nM
5,"CNC(=O)Nc1snc(OC(C)c2cccnc2)c1C(N)=O (stereo not drawn) [Example 27, 5-(3-Methyl-ureido)-3-(1-pyridin-3-yl-ethoxy)-isothiazole-4-carboxylic acid amide]",710 nM
6,"NC(=O)c1c(OCc2cccnc2)nsc1NC(=O)NCCN1CCOCC1 [Example 16, 5-[3-(2-Morpholin-4-yl-ethyl)-ureido]-3-(pyridin-3-ylmethoxy)-isothiazole-4-carboxylic acid amide]",855 nM
7,"CN1CCCC1CCNC(=O)Nc1snc(OCc2cccnc2)c1C(N)=O (stereo not drawn) [Example 19, 5-{3-[2-(1-Methyl-pyrrolidin-2-yl)-ethyl]-ureido}-3-(pyridin-3-ylmethoxy)-isothiazole-4-carboxylic acid amide]",457 nM
8,"NC(=O)c1c(OCc2cccnc2)nsc1NC(=O)NC[C@H]1CCCCC[C@H]1O [Example 21, (R),(R)-5-[3-(2-Hydroxy-cycloheptylmethyl)-ureido]-3-(pyridin-3-ylmethoxy)-isothiazole-4-carboxylic acid amide]",759 nM
9,"COc1cccc(OC)c1CNC(=O)Nc1snc(OC(C)c2cccnc2)c1C(N)=O (stereo not drawn) [Example 26, 5-[3-(2,6-Dimethoxy-benzyl)-ureido]-3-(1-pyridin-3-yl-ethoxy)-isothiazole-4-carboxylic acid amide]",502 nM
10,"CC1CCCCN1CCCNC(=O)Nc1snc(OCc2cccnc2)c1C(N)=O (stereo not drawn) [Example 20, 5-{3-[3-(2-Methyl-piperidin-1-yl)-propyl]-ureido}-3-(pyridin-3-ylmethoxy)-isothiazole-4-carboxylic acid amide]",966 nM
11,"NC(=O)c1c(OCc2cccnc2)nsc1NC(=O)NCCCN1CCOCC1 [Example 15, 5-[3-(3-Morpholin-4-yl-propyl)-ureido]-3-(pyridin-3-ylmethoxy)-isothiazole-4-carboxylic acid amide]",437 nM
